For data set [1], the system named is Staphylococcus aureus. Put plainly: standard disc-plate assay. It counts as cell-based. The settings on record: read-out: Zone Diameters.
Data set [2] deals with Bacillus subtilis. As to the kind of experiment: standard disc-plate assay. Type of data set: cell-based. The settings on record: read-out: Zone Diameters.
Data set [3] concerns Micrococcus luteus. Put plainly: standard disc-plate assay. Type of data set: cell-based. The settings on record: read-out: Zone Diameters.
Data set [4] relates to Mycobacterium avium. As to the kind of experiment: standard disc-plate assay. The settings on record: read-out: Zone Diameters. Type of data set: cell-based.
The subject of data set [5] is Saccharomyces pastorianus. As to the kind of experiment: standard disc-plate assay. Type of data set: cell-based. The settings on record: read-out: Zone Diameters.
Data set [6] deals with Neurospora crassa. As to the kind of experiment: standard disc-plate assay. It counts as cell-based. The settings on record: read-out: Zone Diameters.
The test system of data set [7] is Candida albicans. Put plainly: standard disc-plate assay. Type of data set: cell-based. The settings on record: read-out: Zone Diameters.
The test system of data set [8] is Trichophyton mentagroprophytes. Put plainly: standard disc-plate assay. Type of data set: cell-based. The settings on record: read-out: Zone Diameters.
For data set [9], the system named is Proteus vulgaris. As to the kind of experiment: standard disc-plate assay. It counts as cell-based. The settings on record: read-out: Zone Diameters.
Data set [10] relates to Salmonella gallinarium. As to the kind of experiment: standard disc-plate assay. The settings on record: read-out: Zone Diameters. Type of data set: cell-based.
Data set [11] deals with Escherichia coli. As to the kind of experiment: standard disc-plate assay. It counts as cell-based. How it is done:
In Table IX the standard discplate-assay activity of the A52688 factors is summarized. Activity is measured as the diameter (in mm) of the observed zone of inhibition; the diameter of the disc used in each case was 6.35 mm.

Data set [12] deals with Serratia marcescens. As to the kind of experiment: standard disc-plate assay. It counts as cell-based. The settings on record: read-out: Zone Diameters.
Data set [13] has as its system Pseudomonas solanacearum. Put plainly: microbe, parasite or virus in culture. It counts as cell-based. The settings on record: Ralstonia solanacearum, read-out: Zone Diameters.
Data set [14] concerns Bacillus stereothermophilus. Put plainly: standard disc-plate assay. It counts as cell-based. The settings on record: read-out: Zone Diameters.
Data set [15] has as its system Adenocarcinoma 755. Put plainly: murine-transplanted tumor adenocarcinoma 755 in mice. Type of data set: in vivo. The settings on record: daily for 10 days. As to the method: A52688 factors A, C, D, E, F, G, H, J and K and the specified acyl esters of factors A, C, D, E, G, H, J and K are especially useful as oncolytic agents.
Table X summarizes the results of experiments in which mice bearing the murine-transplanted tumor adenocarcinoma 755 were treated with compounds of this invention. In each test the compound was administered by the intraperitoneal route at specified dose levels. The compound was administered over a ten-day period, either on a daily basis or on days one, five and nine, as indicated.

A short description of data set [16]: acute toxicity in mice. The settings on record: mouse, in vivo, ip, intraperitoneal, formulated in aqueous PVP, read-out: Intraperitoneal LD50. From the text: ^a Compounds formulated in aqueous PVP
^b Route test compound administered

Data set [17] relates to Pseudomonas aeruginosa. As to the kind of experiment: standard disc-plate assay. The settings on record: read-out: Zone Diameters. Type of data set: cell-based.
Where [18] appears, read: read-out: Zone Diameters, conc 0.1 mg/ml, disc 6.35 mm.
The mark [19] stands for this setting: read-out: Zone Diameters, in minimal medium, conc 0.1 mg/ml, disc 6.35 mm.
[20] abbreviates: 0.25 mg/kg i.p., of 10 mice tested (9 for factor E).
[21] abbreviates: 0.50 mg/kg i.p., of 10 mice tested (8 for factor E).
The mark [22] stands for this setting: 1.00 mg/kg i.p., of 10 (factor E) or 9 (factor F) mice tested.
[23] abbreviates: conc 0.1 mg/ml, disc 6.35 mm, ^b overgrowth: factor B.
Setting [24] is: conc 0.1 mg/ml, disc 6.35 mm, ^b overgrowth: factor F.
The mark [25] stands for this setting: conc 0.1 mg/ml, disc 6.35 mm, ^b overgrowth: factors B, C, F.
Setting [26] is: conc 0.1 mg/ml, disc 6.35 mm, ^b overgrowth: factors A, C, E, F, G.
The mark [27] stands for this setting: conc 0.1 mg/ml, disc 6.35 mm, read-out: Zone Diameters.
[28] abbreviates: in minimal medium, conc 0.1 mg/ml, disc 6.35 mm, read-out: Zone Diameters.
Setting [29] is: conc 0.1 mg/ml, disc 6.35 mm, ^b overgrowth: factor C.

Where two headings read alike, the source gives them in different places. Where only a bound is given, the exact number is not on record here.

For the compound `[C-]#[N+]C(=CC1=C[C@@H](O)[C@H](O)CC1)C(=CC1CCC(O)CC1)[N+]#[C-]` (relative stereo) [Factor C], the zone of inhibition at 100 µg/mL in [1] stood at 16 mm; in [2], 23 mm; in [3], 33 mm; in [4] it was 18 mm; in data set [5], 15 mm; in data set [6], 22 mm. Moreover, the zone of inhibition at 100 µg/mL stood at 16 mm in [7]; 15 mm in data set [8]; 26 mm in data set [9]; 38 mm in [10]; 24 mm in data set [11] (setting [18]); 20 mm in [11] (setting [19]). Besides, the zone of inhibition at 100 µg/mL in [12] was determined as 15 mm; in data set [13] (conc 0.1 mg/ml), 20 mm; in data set [14] it was 35 mm. Besides, the “Percent Tumor Inhibition” value in data set [15] (0.125 mg/kg i.p.) came to 60%; in [15] (0.25 mg/kg i.p.) it was 47%; in data set [15] (0.50 mg/kg i.p.), 72%. Also, the “Toxic Deaths” value is listed as 0 in data set [15] (0.125 mg/kg i.p., of 10 mice tested); 0 in data set [15] (setting [20]); 5 in data set [15] (setting [21]). In addition, in [16], the 50% lethal dose (LD50) is < 2.34 mg/kg.

Turning to `[C-]#[N+]C(=CC1=C[C@@H](O)[C@@H](O)CC1)C(=CC1CCC(OC(=O)C=C(C)C)CC1)[N+]#[C-]` (relative stereo) [Factor E], the zone of inhibition at 100 µg/mL was found to be 21 mm in [1]; 29 mm in data set [2]; 24 mm in [3]; 15 mm in data set [4]; 20 mm in [5]; 34 mm in data set [6]. Further, the zone of inhibition at 100 µg/mL in data set [7] is 29 mm; in data set [8], 43 mm; in data set [9], 21 mm; in [10], 19 mm; in data set [11] (setting [18]), 18 mm; in data set [11] (setting [19]), 16 mm. The zone of inhibition at 100 µg/mL in data set [17] was determined as 17 mm; in data set [12], 17 mm; in [13] (conc 0.1 mg/ml) it was 24 mm; in [14], 30 mm. Further, the “Percent Tumor Inhibition” value is reported as 22% in [15] (0.25 mg/kg i.p.), 74% in data set [15] (0.50 mg/kg i.p.) and “toxic” in data set [15] (1.00 mg/kg i.p.). In addition, the “Toxic Deaths” value in data set [15] (setting [20]) is on record as 0; in [15] (setting [21]), 3; in data set [15] (setting [22]), 10. Further, the 50% lethal dose (LD50) in data set [16] is 3.54 mg/kg.

Regarding `[C-]#[N+]C(=CC1=C[C@@H](OC(C)=O)[C@H](O)CC1)C(=CC1CCC(OC(=O)C=C(C)C)CC1)[N+]#[C-]` (relative stereo) [Factor H], the zone of inhibition at 100 µg/mL in data set [1] (setting [23]) turned out to be 20 mm; in [2] (conc 0.1 mg/ml, disc 6.35 mm), 16 mm; in data set [3] (conc 0.1 mg/ml, disc 6.35 mm), 27 mm; in data set [4] (setting [24]), 10 mm; in [5] (setting [25]) it was 16 mm; in data set [6] (conc 0.1 mg/ml, disc 6.35 mm), 33 mm. For the same compound, the zone of inhibition at 100 µg/mL in data set [7] (conc 0.1 mg/ml, disc 6.35 mm) amounted to 18 mm; in data set [8] (conc 0.1 mg/ml, disc 6.35 mm), 35 mm; in [9] (setting [26]) it was 17 mm; in data set [10] (conc 0.1 mg/ml, disc 6.35 mm) it was 16 mm; in [11] (setting [27]), 15 mm; in data set [11] (setting [28]), 10 mm. Further, the zone of inhibition at 100 µg/mL came to 11 mm in [17] (conc 0.1 mg/ml, disc 6.35 mm); 10 mm in data set [12] (setting [29]); 18 mm in data set [13]; 24 mm in [14] (conc 0.1 mg/ml, disc 6.35 mm).

Turning to `[C-]#[N+]C(=CC1=C[C@@H](OC)[C@@H](O)CC1)C(=CC1CCC(OC(=O)C=C(C)C)CC1)[N+]#[C-]` (relative stereo) [Factor J], the zone of inhibition at 100 µg/mL in data set [1] amounted to 23 mm; in [2], 19 mm; in data set [3] it was 29 mm; in data set [4], 14 mm; in [5] it was 19 mm; in data set [6], 36 mm. Further, the zone of inhibition at 100 µg/mL in data set [7] amounted to 22 mm; in data set [8], 37 mm; in data set [9] it was 22 mm; in data set [10], 17 mm; in [11] (setting [18]) it was 15 mm; in data set [11] (setting [19]) it was 13 mm. Moreover, the zone of inhibition at 100 µg/mL is 12 mm in data set [17], 12 mm in [12], 21 mm in data set [13] (conc 0.1 mg/ml) and 25 mm in data set [14].

Consider `O=CNC=Cc1ccc(O)cc1` [Factor B], for which the zone of inhibition at 100 µg/mL in data set [1] (setting [23]) came out at 25 mm; in data set [2] (conc 0.1 mg/ml, disc 6.35 mm), 21 mm; in data set [3] (conc 0.1 mg/ml, disc 6.35 mm), 22 mm; in data set [5] (setting [25]), 14 mm; in [6] (conc 0.1 mg/ml, disc 6.35 mm), 24 mm; in [7] (conc 0.1 mg/ml, disc 6.35 mm), 11 mm. Also, the zone of inhibition at 100 µg/mL was 19 mm in data set [8] (conc 0.1 mg/ml, disc 6.35 mm) and 21 mm in data set [14] (conc 0.1 mg/ml, disc 6.35 mm). In addition, in data set [16], the LD50 was > 75 mg/kg.

For the compound `[C-]#[N+]C(=Cc1ccc(O)cc1)C(=CC1CCC(OC(=O)C=C(C)C)CC1)[N+]#[C-]` (centres unmarked) [Factor D], the zone of inhibition at 100 µg/mL came out at 18 mm in data set [1] (setting [23]); 18 mm in [2] (conc 0.1 mg/ml, disc 6.35 mm); 26 mm in data set [3] (conc 0.1 mg/ml, disc 6.35 mm); 13 mm in data set [4] (setting [24]); 13 mm in data set [5] (setting [25]); 22 mm in data set [6] (conc 0.1 mg/ml, disc 6.35 mm). Further, the zone of inhibition at 100 µg/mL is 19 mm in data set [7] (conc 0.1 mg/ml, disc 6.35 mm); 21 mm in data set [8] (conc 0.1 mg/ml, disc 6.35 mm); 12 mm in [9] (setting [26]); 14 mm in [10] (conc 0.1 mg/ml, disc 6.35 mm); 15 mm in data set [11] (setting [27]); 11 mm in data set [11] (setting [28]). In addition, the zone of inhibition at 100 µg/mL was 13 mm in data set [17] (conc 0.1 mg/ml, disc 6.35 mm); 12 mm in data set [12] (setting [29]); 17 mm in data set [13]; 21 mm in data set [14] (conc 0.1 mg/ml, disc 6.35 mm). In [16], the median lethal dose (LD50) is 0.992 mg/kg.

In the case of `[C-]#[N+]C(=CC1CCC(OC(=O)C=C(C)C)CC1)C(=CC1(OC(C)=O)C=CC(=O)CC1)[N+]#[C-]` (centres unmarked) [Factor F], the zone of inhibition at 100 µg/mL turned out to be 26 mm in data set [1] (setting [23]); 27 mm in [2] (conc 0.1 mg/ml, disc 6.35 mm); 30 mm in data set [3] (conc 0.1 mg/ml, disc 6.35 mm); 17 mm in data set [4] (setting [24]); 22 mm in [5] (setting [25]); 33 mm in data set [6] (conc 0.1 mg/ml, disc 6.35 mm). Besides, the zone of inhibition at 100 µg/mL in data set [7] (conc 0.1 mg/ml, disc 6.35 mm) amounted to 21 mm; in [8] (conc 0.1 mg/ml, disc 6.35 mm), 20 mm; in data set [9] (setting [26]), 20 mm; in data set [10] (conc 0.1 mg/ml, disc 6.35 mm), 11 mm; in data set [11] (setting [27]) it was 17 mm; in [13] it was 10 mm. In data set [14] (conc 0.1 mg/ml, disc 6.35 mm), the zone of inhibition at 100 µg/mL was 27 mm. For the same compound, the “Percent Tumor Inhibition” value is 51% in data set [15] (0.25 mg/kg i.p.), 69% in data set [15] (0.50 mg/kg i.p.), 91% in [15] (1.00 mg/kg i.p.) and “toxic” in data set [15] (2.00 mg/kg i.p.). In addition, the “Toxic Deaths” value in [15] (setting [20]) came out at 0; in data set [15] (setting [21]), 0; in [15] (setting [22]), 2; in data set [15] (2.00 mg/kg i.p., of 10 mice tested), 10. Further, in data set [16], the LD50 turned out to be 5 mg/kg.
